In US10173991B2, “Sulfone amide linked benzothiazole inhibitors of endothelial lipase” (BRISTOL-MYERS SQUIBB COMPANY, priority 2014, dated 2019):
Where two headings read alike, the source gives them in different places.

Biological target: Endothelial lipase (EL) (Homo sapiens (Human), UniProt Q9Y5X9)
Assay: Endothelial lipase (EL) enzymatic assay with fluorescent substrate A10070 in DMPG vesicles
Format: biochemical
Outline: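 Substrate A10070 sits in sonicated DMPG vesicles at 0.11 mole fraction. Lipase and compound preincubated 30 min, 37° C, in HEPES pH 8.0 buffer with CaCl2.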

Endothelial lipase (EL), sequence (Q9Y5X9 21-500): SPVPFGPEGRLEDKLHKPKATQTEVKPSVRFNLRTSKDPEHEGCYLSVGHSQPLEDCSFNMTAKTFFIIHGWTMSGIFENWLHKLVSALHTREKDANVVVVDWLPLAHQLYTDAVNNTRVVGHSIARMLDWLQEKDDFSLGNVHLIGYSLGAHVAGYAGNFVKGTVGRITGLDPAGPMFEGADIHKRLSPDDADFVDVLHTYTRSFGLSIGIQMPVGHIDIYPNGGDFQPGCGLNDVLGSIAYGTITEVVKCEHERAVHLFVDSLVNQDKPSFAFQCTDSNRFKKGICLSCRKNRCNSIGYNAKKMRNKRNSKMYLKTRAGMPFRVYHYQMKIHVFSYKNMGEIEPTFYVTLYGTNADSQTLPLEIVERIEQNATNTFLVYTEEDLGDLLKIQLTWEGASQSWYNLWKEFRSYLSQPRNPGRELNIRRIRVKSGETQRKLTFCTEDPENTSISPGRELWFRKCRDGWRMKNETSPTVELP

Row | Structure (SMILES) | IC50 | IC50 (EL from conditioned media of HT-1080 cells, 30 min preincubation at 37° C.)
1 | O=C(CNC(=O)C(c1nc2c(F)cc(-c3cncnc3)cc2s1)S(=O)(=O)c1ccc(F)cc1)NC1CC1 (stereo not shown) [Example 474, N-[(cyclopropyl-carbamoyl)methyl]-2-[4-fluoro-6-(pyrimidin-5-yl)-1,3-benzothiazol-2-yl]-2-(4-fluorobenzene-sulfonyl)acetamide] | 116 nM | 
2 | O=C(CNC(=O)C(c1nc2c(F)cc(-c3ccc4[nH]c(=O)ccc4c3)cc2s1)S(=O)(=O)c1ccc(F)cc1)NC1CC1 (stereo not shown) [Example 475, N-[(cyclopropyl-carbamoyl)methyl]-2-[4-fluoro-6-(2-oxo-1,2-dihydroquinolin-6-yl)-1,3-benzothiazol-2-yl]-2-(4-fluorobenzene-sulfonyl)acetamide] | 7 nM | 
3 | O=C(CNC(=O)C(c1nc2c(F)cc(-c3cnc(C4CC4)nc3)cc2s1)S(=O)(=O)c1ccc(F)cc1)NC1CC1 (stereo not shown) [Example 476, N-[(cyclopropyl-carbamoyl)methyl]-2-[6-(2-cyclopropyl-pyrimidin-5-yl)-4-fluoro-1,3-benzothiazol-2-yl]-2-(4-fluorobenzene-sulfonyl)acetamide] | 51 nM | 
4 | O=C(CNC(=O)C(c1nc2c(F)cc(-c3ccc4c(c3)C(=O)NC4)cc2s1)S(=O)(=O)c1ccc(F)cc1)NC1CC1 (stereo not shown) [Example 477, N-[(cyclopropyl-carbamoyl)methyl]-2-[4-fluoro-6-(3-oxo-2,3-dihydro-1H-isoindol-5-yl)-1,3-benzothiazol-2-yl]-2-(4-fluorobenzene-sulfonyl)acetamide] | 68 nM | 
5 | COC(=O)Nc1ccc(-c2cc3sc(C(C(=O)NCC(=O)NC4CC4)S(=O)(=O)c4ccc(F)cc4)nc3cc2F)cc1 (stereo not shown) [Example 478, methyl N-{4-[2-({[(cyclopropyl-carbamoyl)methyl]carbamoyl}(4-fluorobenzene-sulfonyl)methyl)-5-fluoro-1,3-benzothiazol-6-yl]phenyl}carbamate] | 2 nM | 
6 | O=C(CNC(=O)C(c1nc2cc(F)c(-c3ccc(-n4ccccc4=O)cc3)cc2s1)S(=O)(=O)c1ccc(F)cc1)NC1CC1 (stereo not shown) [Example 479, N-[(cyclopropyl-carbamoyl)methyl]-2-{5-fluoro-6-[4-(2-oxo-1,2-dihydropyridin-1-yl)phenyl]-1,3-benzothiazol-2-yl}-2-(4-fluorobenzene-sulfonyl)acetamide] | 9 nM | 
7 | COCCNC(=O)c1ccc(-c2ccc3nc(C(C(=O)NCC(=O)NC4CC4)S(=O)(=O)N4CCOCC4)sc3c2)cc1 (stereo not shown) [Example 480, 4-[2-({[(Cyclopropylcarbamoyl)methyl]carbamoyl}(morpholine-4-sulfonyl)methyl)-1,3-benzothiazol-6-yl]-N-(2-methoxyethyl)benzamide] |  | 4 nM
8 | O=C(CNC(=O)C(c1nc2ccc(-c3cncnc3)cc2s1)S(=O)(=O)N1CCOCC1)NC1CC1 (stereo not shown) [Example 481, N-[(cyclopropyl-carbamoyl)methyl]-2-(morpholine-4-sulfonyl)-2-[6-(pyrimidin-5-yl)-1,3-benzothiazol-2-yl]acetamide] | 99 nM | 
9 | O=C(CNC(=O)C(c1nc2ccc(-c3cccnc3F)cc2s1)S(=O)(=O)N1CCOCC1)NC1CC1 (stereo not shown) [Example 482, N-[(cyclopropyl-carbamoyl)methyl]-2-[6-(2-fluoropyridin-3-yl)-1,3-benzothiazol-2-yl]-2-(morpholine-4-sulfonyl)acetamide] | 173 nM | 
10 | O=C(CNC(=O)C(c1nc2ccc(-c3ccc(F)nc3)cc2s1)S(=O)(=O)N1CCOCC1)NC1CC1 (stereo not shown) [Example 483, N-[(cyclopropyl-carbamoyl)methyl]-2-[6-(6-fluoropyridin-3-yl)-1,3-benzothiazol-2-yl]-2-(morpholine-4-sulfonyl)acetamide] | 299 nM | 
11 | CN(C)S(=O)(=O)C(C(=O)NCC(=O)NC1CC1)c1nc2ccc(-c3ccc(F)nc3)cc2s1 (stereo not shown) [Example 484, N-[(cyclopropyl-carbamoyl)methyl]-2-(dimethyl-sulfamoyl)-2-[6-(6-fluoropyridin-3-yl)-1,3-benzothiazol-2-yl]acetamide] | 7 nM | 
12 | Cn1ccc(-c2ccc3nc(C(C(=O)NCC(=O)NC4CC4)S(=O)(=O)N4CCOCC4)sc3c2)cc1=O (stereo not shown) [Example 485, N-[(cyclopropyl-carbamoyl)methyl]-2-[6-(1-methyl-2-oxo-1,2-dihydropyridin-4-yl)-1,3-benzothiazol-2-yl]-2-(morpholine-4-sulfonyl)acetamide] | 57 nM | 
13 | O=C(CNC(=O)C(c1nc2cc(F)c(-c3ccc(F)nc3)cc2s1)S(=O)(=O)N1CCOCC1)NC1CC1 (stereo not shown) [Example 486, N-[(cyclopropyl-carbamoyl)methyl]-2-[5-fluoro-6-(6-fluoropyridin-3-yl)-1,3-benzothiazol-2-yl]-2-(morpholine-4-sulfonyl)acetamide] | 48 nM | 
14 | Cc1cc(-c2cc3sc(C(C(=O)NCC(=O)NC4CC4)S(=O)(=O)N4CCOCC4)nc3cc2F)cnn1 (stereo not shown) [Example 487, N-[(cyclopropyl-carbamoyl)methyl]-2-[5-fluoro-6-(6-methylpyridazin-4-yl)-1,3-benzothiazol-2-yl]-2-(morpholine-4-sulfonyl) acetamide] | 93 nM | 
15 | COC(=O)Nc1ccc(-c2cc3sc(C(C(=O)NCC(=O)NC4CC4)S(=O)(=O)N4CCOCC4)nc3cc2F)cc1F (stereo not shown) [Example 488, methyl N-{4-[2-({[(cyclopropyl-carbamoyl)methyl]carbamoyl} (morpholine-4-sulfonyl)methyl)-5-fluoro-1,3-benzothiazol-6-yl]-2-fluorophenyl} carbamate] | 13 nM | 
16 | CN(C)S(=O)(=O)C(C(=O)NCC(=O)NC1CC1)c1nc2c(F)cc(-c3ccc(F)nc3)cc2s1 (stereo not shown) [Example 489, N-[(cyclopropyl-carbamoyl)methyl]-2-(dimethyl-sulfamoyl)-2-[4-fluoro-6-(6-fluoropyridin-3-yl)-1,3-benzothiazol-2-yl]acetamide] | 165 nM | 
17 | Cc1cc(-c2cc(F)c3nc(C(C(=O)NCC(=O)NC4CC4)S(=O)(=O)N(C)C)sc3c2)cnn1 (stereo not shown) [Example 490, N-[(cyclopropyl-carbamoyl)methyl]-2-(dimethyl-sulfamoyl)-2-[4-fluoro-6-(6-methypylridazin-4-yl)-1,3-benzothiazol-2-yl]acetamide] | 207 nM | 
18 | Cc1ncc(-c2cc(F)c3nc(C(C(=O)NCC(=O)NC4CC4)S(=O)(=O)N(C)C)sc3c2)cn1 (stereo not shown) [Example 491, N-[(cyclopropyl-carbamoyl)methyl]-2-(dimethyl-sulfamoyl)-2-[4-fluoro-6-(2-methylpyrimidin-5-yl)-1,3-benzothiazol-2-yl]acetamide] | 82 nM | 
19 | CN(C)S(=O)(=O)C(C(=O)NCC(=O)NC1CC1)c1nc2c(F)cc(-c3ccc4[nH]c(=O)ccc4c3)cc2s1 (stereo not shown) [Example 492, N-[(cyclopropyl-carbamoyl)methyl]-2-(dimethyl-sulfamoyl)-2-[4-fluoro-6-(2-oxo-1,2-dihydroquinolin-6-yl)-1,3-benzothiazol-2-yl]acetamide] | 5 nM | 

Results, then the molecule that gave them:

Row | IC50 | IC50 (EL from conditioned media of HT-1080 cells, 30 min preincubation at 37° C.) | Structure (SMILES)
20 | 1 nM |  | CN(C)S(=O)(=O)C(C(=O)NCC(=O)NC1CC1)c1nc2c(F)cc(-c3ccc4c(=O)n(C)ccc4c3)cc2s1 (stereo not shown) [Example 493, N-[(cyclopropyl-carbamoyl)methyl]-2-(dimethyl-sulfamoyl)-2-[4-fluoro-6-(2-methyl-1-oxo-1,2-dihydro-isoquinolin-6-yl)-1,3-benzothiazol-2-yl]acetamide]
21 | 44 nM |  | CN(C)S(=O)(=O)C(C(=O)NCC(=O)NC1CC1)c1nc2c(F)cc(-c3ccc4cnn(C)c4c3)cc2s1 (stereo not shown) [Example 494, N-[(cyclopropyl-carbamoyl)methyl]-2-(dimethyl-sulfamoyl)-2-[4-fluoro-6-(1-methyl-1H-indazol-6-yl)-1,3-benzothiazol-2-yl] acetamide]
22 | 2 nM |  | CN(C)S(=O)(=O)C(C(=O)NCC(=O)NC1CC1)c1nc2c(F)cc(-c3ccc(NC(=O)OCc4ccccc4)cc3)cc2s1 (stereo not shown) [Example 495, benzyl N-{4-[2-({[(cyclopropyl-carbamoyl)methyl]carbamoyl} (dimethyl-sulfamoyl)methyl)-4-fluoro-1,3-benzothiazol-6-yl]phenyl}carbamate]
23 | 2 nM |  | COC(=O)Nc1ccc(-c2cc(F)c3nc(C(C(=O)NCC(=O)NC4CC4)S(=O)(=O)N(C)C)sc3c2)cc1 (stereo not shown) [Example 496, methyl N-{4-[2-({[(cyclopropyl-carbamoyl)methyl]carbamoyl} (dimethyl-sulfamoyl)methyl)-4-fluoro-1,3-benzothiazol-6-yl]phenyl} carbamate]
24 | 3 nM |  | CN(C)S(=O)(=O)C(C(=O)NCC(=O)NC1CC1)c1nc2c(F)cc(-c3ccc(-n4ccccc4=O)cc3)cc2s1 (stereo not shown) [Example 497, N-[(cyclopropyl-carbamoyl)methyl]-2-(dimethyl-sulfamoyl)-2-{4-fluoro-6-[4-(2-oxo-1,2-dihydropyridin-1-yl)phenyl]-1,3-benzothiazol-2-yl}acetamide]
25 | 3 nM |  | CN(C)S(=O)(=O)C(C(=O)NCC(=O)NC1CC1)c1nc2c(F)cc(-c3ccc(-c4ccccc4)nc3)cc2s1 (stereo not shown) [Example 498, N-[(cyclopropyl-carbamoyl)methyl]-2-(dimethyl-sulfamoyl)-2-[4-fluoro-6-(6-phenylpyridin-3-yl)-1,3-benzothiazol-2-yl]acetamide]
26 | 4 nM |  | CN(C)S(=O)(=O)C(C(=O)NCC(=O)NC1CC1)c1nc2c(F)cc(-c3ccc(N4CCCCC4=O)cc3)cc2s1 (stereo not shown) [Example 499, N-[(cyclopropyl-carbamoyl)methyl]-2-(dimethyl-sulfamoyl)-2-{4-fluoro-6-[4-(2-oxopiperidin-1-yl)phenyl]-1,3-benzothiazol-2-yl} acetamide]
27 | 8 nM |  | CN(C)S(=O)(=O)C(C(=O)NCC(=O)NC1CC1)c1nc2c(F)cc(-c3cnc(-c4ccccc4)nc3)cc2s1 (stereo not shown) [Example 500, N-[(cyclopropyl-carbamoyl)methyl]-2-(dimethyl-sulfamoyl)-2-[4-fluoro-6-(2-phenylpyrimidin-5-yl)-1,3-benzothiazol-2-yl]acetamide]
28 | 8 nM |  | CN(C)S(=O)(=O)C(C(=O)NCC(=O)NC1CC1)c1nc2c(F)cc(-c3ccccc3)cc2s1 (stereo not shown) [Example 501, N-[(cyclopropyl-carbamoyl)methyl]-2-(dimethyl-sulfamoyl)-2-(4-fluoro-6-phenyl-1,3-benzothiazol-2-yl)acetamide]
